Experimental data reported in PubChem BioAssay (NCI).
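Values below derive from 48-hour exposures of cells grown in 96-well plates, with endpoints linearly interpolated between the two concentrations bracketing the appropriate inhibition level. The concentration for 50% growth inhibition is given as GI50. Definition used: TGI = concentration required for complete inhibition of growth.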

What was measured:
Assay in all cases: NCI-60 cell line screen, 48 h
BT-549 breast = system: BT-549 breast
CCRF-CEM leukemia = system: CCRF-CEM leukemia
DU-145 prostate = system: DU-145 prostate
HCT-15 colon = system: HCT-15 colon
K-562 leukemia = system: K-562 leukemia
M14 melanoma = system: M14 melanoma
MALME-3M melanoma = system: MALME-3M melanoma
NCI-H226 lung = system: NCI-H226 lung
SK-OV-3 ovarian = system: SK-OV-3 ovarian
U251 CNS = system: U251 CNS

SMILES	GI50 (BT-549 breast)	TGI (BT-549 breast)	GI50 (CCRF-CEM leukemia)	TGI (CCRF-CEM leukemia)	GI50 (DU-145 prostate)	TGI (DU-145 prostate)	GI50 (HCT-15 colon)	TGI (HCT-15 colon)	GI50 (K-562 leukemia)	TGI (K-562 leukemia)	GI50 (M14 melanoma)	TGI (M14 melanoma)	GI50 (MALME-3M melanoma)	TGI (MALME-3M melanoma)	GI50 (NCI-H226 lung)	TGI (NCI-H226 lung)	GI50 (SK-OV-3 ovarian)	TGI (SK-OV-3 ovarian)	GI50 (U251 CNS)	TGI (U251 CNS)
Cn1cc(C2=C(c3cccc(N)c3)C(=O)NC2=O)c2ccccc21	> 19.3 µM	> 25 µM	11.2 µM	> 25 µM	19 µM	> 25 µM	12.8 µM	> 25 µM	8.86 µM	> 25 µM	> 25 µM	> 25 µM	> 25 µM	> 25 µM	10 µM	> 25 µM	> 19 µM	> 25 µM	10.4 µM	> 25 µM
CCCCCCc1cc2cc(-c3nc4ccccc4[nH]3)c(=Nc3ccccc3C)oc2cc1O	1.83 µM	3.55 µM	2.77 µM	9.59 µM	2.96 µM	7.77 µM	2.17 µM	5.34 µM	3.1 µM	9.29 µM	1.85 µM	3.6 µM	1.81 µM	3.62 µM	2.55 µM	10.3 µM	3.57 µM	13.7 µM	1.71 µM	3.3 µM
Cc1nc(-c2ccccc2)c(Cc2ccccc2O)c(=O)[nH]1	–	> 100 µM	–	> 100 µM	–	> 100 µM	–	> 100 µM	–	> 100 µM	–	> 100 µM	–	> 100 µM	–	> 100 µM	–	> 100 µM	–	> 100 µM
COc1cccc(C2C3=C(COC3=O)N(CCO)c3cc(OC)ccc32)c1 (stereo not given)	0.295 µM	> 28.5 µM	0.204 µM	> 100 µM	0.139 µM	1.91 µM	0.121 µM	> 100 µM	0.0895 µM	> 100 µM	0.156 µM	> 100 µM	0.0786 µM	> 100 µM	0.182 µM	8.86 µM	0.109 µM	–	0.0992 µM	> 100 µM
COc1cc(-n2cc(-c3ccc(F)cc3)nc2SCc2ccccc2)cc(OC)c1OC	> 100 µM	> 100 µM	17.7 µM	43.8 µM	> 100 µM	> 100 µM	> 100 µM	> 100 µM	8.1 µM	> 100 µM	> 100 µM	> 100 µM	> 100 µM	> 100 µM	> 100 µM	> 100 µM	> 100 µM	> 100 µM	> 100 µM	> 100 µM
COc1cc2cc(C(=O)CCC(=O)O)sc2cc1OC	> 100 µM	> 100 µM	> 100 µM	> 100 µM	> 100 µM	> 100 µM	> 100 µM	> 100 µM	> 100 µM	> 100 µM	> 100 µM	> 100 µM	> 100 µM	> 100 µM	47.4 µM	> 100 µM	62.4 µM	> 100 µM	> 100 µM	> 100 µM
O=C(Nc1ccc(F)cc1)Nc1ccccc1CNc1nc(Nc2ccc(OCCN3CCCC3)cc2)ncc1Cl	5.15 µM	11.2 µM	1.6 µM	5.93 µM	2.48 µM	8.06 µM	1.58 µM	6.06 µM	1.2 µM	3.06 µM	0.946 µM	2 µM	0.81 µM	1.55 µM	–	–	–	–	1.28 µM	3.73 µM
Nc1ncnc2c1ncn2Cc1ccc(C23CC4CC(CC(C4)C2)C3)c(OCc2cc(F)c(F)cc2F)c1	> 100 µM	> 100 µM	2.4 µM	6.84 µM	15.3 µM	> 100 µM	4.92 µM	> 100 µM	–	–	–	–	4.59 µM	> 100 µM	> 100 µM	> 100 µM	87.7 µM	> 100 µM	5.59 µM	42.8 µM
N=C(N)c1ccc(OCCOCCOc2ccc(C(=N)N)cc2)cc1	53.5 µM	> 100 µM	1 µM	> 100 µM	96.1 µM	> 100 µM	84.1 µM	> 100 µM	63.3 µM	> 100 µM	> 100 µM	> 100 µM	39.5 µM	> 100 µM	> 100 µM	> 100 µM	–	–	77.6 µM	> 100 µM
O=c1cc(-c2ccccc2)oc2cc(O)c(O)c(O)c12	13.6 µM	87.5 µM	2.39 µM	> 100 µM	25.1 µM	> 100 µM	8.25 µM	58.8 µM	12.6 µM	> 100 µM	22.9 µM	92.2 µM	–	–	19.3 µM	58 µM	59.6 µM	> 100 µM	11.1 µM	> 100 µM
CC(C)(O)C#Cc1ccc(/C=C/C(=O)c2ccccc2)s1	16.2 µM	30.8 µM	13.6 µM	64.9 µM	14.9 µM	28.1 µM	15.7 µM	30.8 µM	16.5 µM	56.3 µM	–	–	16.4 µM	36.1 µM	18.8 µM	42.3 µM	16.5 µM	30.1 µM	13.6 µM	26.5 µM
